Test results: patent publication US20160348148A1, “MICROWELL PLATE FOR HIGH-THROUGHPUT DETECTION AND APPLICATION THEREOF” (SHANGHAI JIAOTONG UNIVERSITY, priority 2013, published 2016)
Read-outs that look alike come from different tables or passages of the source.

Key:
hCBS = target: T1, hCBS (Homo sapiens, UniProt P35520); test: High-throughput screening of hCBS enzymatic reaction inhibitors (H2S detection with DTNB in microwell plate); type: biochemical
T1 construct: made in house
T1 sequence (P35520 1-551): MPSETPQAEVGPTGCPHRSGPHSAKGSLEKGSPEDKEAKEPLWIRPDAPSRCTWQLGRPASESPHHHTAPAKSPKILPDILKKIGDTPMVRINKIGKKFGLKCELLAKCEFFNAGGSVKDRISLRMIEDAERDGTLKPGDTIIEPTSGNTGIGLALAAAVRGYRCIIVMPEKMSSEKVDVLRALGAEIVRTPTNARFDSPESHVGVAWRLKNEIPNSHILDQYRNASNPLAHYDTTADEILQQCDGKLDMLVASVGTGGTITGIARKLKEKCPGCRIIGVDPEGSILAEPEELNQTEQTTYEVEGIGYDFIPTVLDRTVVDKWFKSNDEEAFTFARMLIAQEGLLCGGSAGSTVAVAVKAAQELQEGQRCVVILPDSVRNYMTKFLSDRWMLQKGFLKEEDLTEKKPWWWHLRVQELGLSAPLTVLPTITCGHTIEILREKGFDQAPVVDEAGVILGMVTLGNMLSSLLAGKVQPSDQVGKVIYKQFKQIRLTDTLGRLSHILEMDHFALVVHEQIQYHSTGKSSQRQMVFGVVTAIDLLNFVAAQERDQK

hDDC = target: T2, hDDC (Homo sapiens, UniProt P20711); test: IC50 to hDDC (specificity test, coupled enzyme assay); type: biochemical
T2 construct: made in house
T2 sequence (P20711 1-480): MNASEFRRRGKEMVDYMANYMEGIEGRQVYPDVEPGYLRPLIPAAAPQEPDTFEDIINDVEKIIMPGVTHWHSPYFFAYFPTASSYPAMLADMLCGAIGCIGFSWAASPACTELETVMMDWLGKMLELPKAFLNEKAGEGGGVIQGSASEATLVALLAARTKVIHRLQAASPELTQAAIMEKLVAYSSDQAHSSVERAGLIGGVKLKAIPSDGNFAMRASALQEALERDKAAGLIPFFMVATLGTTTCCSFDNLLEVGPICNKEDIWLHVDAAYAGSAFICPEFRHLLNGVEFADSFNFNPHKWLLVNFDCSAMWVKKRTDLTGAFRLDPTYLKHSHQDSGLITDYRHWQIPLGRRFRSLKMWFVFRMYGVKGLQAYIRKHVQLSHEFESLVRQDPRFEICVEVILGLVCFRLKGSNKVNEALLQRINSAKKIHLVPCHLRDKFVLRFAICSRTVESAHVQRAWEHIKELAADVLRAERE
Method: By referring to the experiment method in Assay Drug Dev Technol. […] Smithson, IC50 of the 9 compounds to hDDC was determined.

[1] = 100 nM hCBS, 4 mM L-Cys, 4 mM D,L-HCys, pH 8.6, 60 min at 37° C., read-out: IC50 to hCBS

| Compound | IC50 (hCBS; [1]) [µM] | IC50 (hDDC; read-out: IC50 to hDDC) [µM] | IC50 (hCBS) [µM] | IC50 (hDDC) [µM] |
| --- | --- | --- | --- | --- |
| CCCCCCCCCCCCCCCC[N+](C)(C)CCN(Cc1ccc(OC)cc1)c1ncccn1 [Compound 2] | 8 | 16 |  |  |
| C/C1=C2/[N]([Co][OH])[C@H]([C@H](CC(N)=O)[C@@]2(C)CCC(=O)NC[C@@H](C)OP(=O)(O)OC2[C@@H](CO)O[C@H](n3cnc4cc(C)c(C)cc43)[C@H]2O)[C@]2(C)N=C(/C(C)=C3N=C(/C=C4N=C1[C@@H](CCC(N)=O)C\4(C)C)[C@@H](CCC(N)=O)[C@]\3(C)CC(N)=O)[C@@H](CCC(N)=O)[C@]2(C)CC(N)=O (stereo partly shown) [Compound 8, Hydroxocobalamin, reference compound] |  |  | 35 | 150 |
| Cn1ncnc2c(=O)n(C)c(=O)nc1-2 [Compound 9] | 12 |  |  |  |

The next lines start with results.

| IC50 (hCBS; [1]) [µM] | IC50 (hDDC; read-out: IC50 to hDDC) [µM] | Compound | IC50 (hCBS) [µM] | IC50 (hDDC) [µM] |
| --- | --- | --- | --- | --- |
| 15 | 25 | CCN(CC)c1ccc(C(=C2C=CC(=[N+](CC)CC)C=C2)c2ccc(N(CC)CC)cc2)cc1 [Compound 3] |  |  |
| 20 | 300 | CC1CCN(C2=C(Cl)C(=O)c3ccccc3C2=O)CC1 [Compound 5] |  |  |
| 30 | 110 | COc1ccc2c(NCCCCCCNc3c4ccccc4nc4cc(OC)ccc34)c3ccccc3nc2c1 [Compound 6] |  |  |
| 40 | 60 | N=C(N)NCCCS(=O)(=O)Nc1ccc(Nc2c3ccccc3nc3cc([N+](=O)[O-])ccc23)cc1 [Compound 7] |  |  |
